Measurements published in ChEMBL document CHEMBL1201862, “PubChem BioAssay data set” (2004).
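Each compound was tested at five concentrations against cells in 96-well plates for 48 hours. GI50 is the concentration that inhibits growth by half.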 Active and inactive are the calls of the source. Rule as the data show it: active = GI50 up to about 1.1 µM and inactive = higher.

Legend:
Assay in all cases: NCI anticancer screen, dose series, 48 h
786-0 = system: 786-0
A549 = system: A549
ACHN = system: ACHN
CAKI-1 = system: CAKI-1
CCRF-CEM = system: CCRF-CEM
HCT-116 = system: HCT-116
HOP-92 = system: HOP-92
IGROV-1 = system: IGROV-1
KM-20L2 = system: KM-20L2
M14 = system: M14
NCI-H522 = system: NCI-H522
SF-268 = system: SF-268
SF-295 = system: SF-295
SK-MEL-5 = system: SK-MEL-5
SNB-75 = system: SNB-75
TK-10 = system: TK-10
UO-31 = system: UO-31
RPMI-8226 = system: RPMI-8226

Structure (SMILES)	GI50 (786-0)	GI50 (A549)	GI50 (ACHN)	GI50 (CAKI-1)	GI50 (CCRF-CEM)	GI50 (HCT-116)	GI50 (HOP-92)	GI50 (IGROV-1)	GI50 (KM-20L2)	GI50 (M14)	GI50 (NCI-H522)	GI50 (SF-268)	GI50 (SF-295)	GI50 (SK-MEL-5)	GI50 (SNB-75)	GI50 (TK-10)	GI50 (UO-31)	GI50 (RPMI-8226)
Nn1c(S)nnc1NNC(=O)C(=O)Nc1cc(Cl)c(Cl)cc1Cl	> 100 µM (inactive)	> 100 µM (inactive)	> 100 µM (inactive)	> 100 µM (inactive)	20 µM (inactive)	> 100 µM (inactive)	> 100 µM (inactive)	> 100 µM (inactive)	> 100 µM (inactive)	> 100 µM (inactive)	> 100 µM (inactive)	> 100 µM (inactive)	> 100 µM (inactive)	> 100 µM (inactive)	15.5 µM (inactive)	> 100 µM (inactive)	> 100 µM (inactive)	–
CCN(CC)CC(C(=O)Nc1c(C)cccc1C)/C(C)=N\NC(=O)C[N+](C)(C)C (stereo unspecified)	> 100 µM (inactive)	> 100 µM (inactive)	> 100 µM (inactive)	> 100 µM (inactive)	–	> 100 µM (inactive)	> 100 µM (inactive)	> 100 µM (inactive)	> 100 µM (inactive)	> 100 µM (inactive)	> 100 µM (inactive)	> 100 µM (inactive)	> 100 µM (inactive)	> 100 µM (inactive)	> 100 µM (inactive)	> 100 µM (inactive)	> 100 µM (inactive)	> 100 µM (inactive)
COc1ccc(-c2cc(-c3ccccc3)c(C#N)c(=O)[nH]2)cc1	> 100 µM (inactive)	> 100 µM (inactive)	> 100 µM (inactive)	–	> 100 µM (inactive)	> 100 µM (inactive)	> 100 µM (inactive)	> 100 µM (inactive)	> 100 µM (inactive)	> 100 µM (inactive)	> 100 µM (inactive)	> 100 µM (inactive)	> 100 µM (inactive)	> 100 µM (inactive)	57.7 µM (inactive)	> 100 µM (inactive)	> 100 µM (inactive)	> 100 µM (inactive)
CC(C)C(Nc1c2ccccc2[n+]([O-])c2ccccc12)C(=O)O (stereo unspecified)	> 100 µM (inactive)	> 100 µM (inactive)	35.2 µM (inactive)	> 100 µM (inactive)	47.8 µM (inactive)	44.6 µM (inactive)	–	> 100 µM (inactive)	> 100 µM (inactive)	91.2 µM (inactive)	81.3 µM (inactive)	55.3 µM (inactive)	> 100 µM (inactive)	34.2 µM (inactive)	58.9 µM (inactive)	> 100 µM (inactive)	55.5 µM (inactive)	19.7 µM (inactive)
N/N=C(\CC1OC(=O)c2ccccc21)c1ccco1 (stereo unspecified)	< 0.01 µM (active)	> 100 µM (inactive)	> 100 µM (inactive)	> 100 µM (inactive)	59.2 µM (inactive)	> 100 µM (inactive)	> 100 µM (inactive)	> 100 µM (inactive)	> 100 µM (inactive)	> 100 µM (inactive)	> 100 µM (inactive)	> 100 µM (inactive)	> 100 µM (inactive)	> 100 µM (inactive)	> 100 µM (inactive)	> 100 µM (inactive)	> 100 µM (inactive)	–
O=C(CC(=O)Nc1cccc(Cl)c1)NNCC(=O)Nc1nnc(-c2ccccc2)s1	16.4 µM (inactive)	> 100 µM (inactive)	39.8 µM (inactive)	> 100 µM (inactive)	–	24.8 µM (inactive)	–	> 100 µM (inactive)	> 100 µM (inactive)	30.4 µM (inactive)	64.1 µM (inactive)	31.8 µM (inactive)	> 100 µM (inactive)	45.8 µM (inactive)	9.38 µM (inactive)	45.2 µM (inactive)	45 µM (inactive)	14.2 µM (inactive)
